Source: BindingDB's records for doi:10.1021/ml3000879 (2012)

Columns and labels:
[1] = target: Dual specificity protein kinase TTK (Homo sapiens) (UniProt P33981); assay: Inhibition of Mps1-mediated p38 MAPK phosphorylation after 90 mins by DELFIA assay
[2] = target: Dual specificity protein kinase TTK (Homo sapiens) (UniProt P33981); assay: Inhibition of FLAG-tagged Mps1 autophosphorylation in human RERF-LC-AI cells expressing Tet-suppressible promotor after 3 hrs by immunoblotting

IC50 [1] [nM] | IC50 [2] [nM] | Structure (SMILES)
3970 | – | CCOc1nc(NCCc2ccccc2)cc(N)c1C#N
568 | – | CCOc1nc(C(=O)NCc2ccc(S(C)(=O)=O)cc2)cc(N)c1C#N [4-amino-5-cyano-6-ethoxy-N-[(4-methanesulfonylphenyl)methyl]pyridine-2-carboxamide]
37 | 1800 | CCOc1nc(Nc2ccc(C(N)=O)cc2)cc(N)c1C#N
228 | – | CCOc1nc(Nc2ccccc2)cc(N)c1C#N
529 | – | CCOc1nc(C(=O)NCc2ccccc2)cc(N)c1C#N [4-Amino-5-cyano-6-ethoxy-pyridine-2-carboxylic acid benzylamide]
4200 | – | CCOc1nc(NC(=O)Cc2ccccc2)cc(N)c1C#N [N-(4-Amino-5-cyano-6-ethoxypyridin-2-yl)-2-phenylacetamide]
